Laboratory results reported in patent US20240299400A1, “Transcription Factor GLI1 Inhibitors and Uses Thereof” (University of Connecticut, priority 2023, published 2024).

Tests used:
GLI1 mRNA expression [1] = assay: RT-qPCR GLI1 mRNA expression in OHCs-stimulated C3H10T1/2 MEFs; assay type: cell-based, mouse; details: for IC50: Mus musculus
Procedure: (§1) ASZ001 and Sufu-KO cells were seeded in 96-well plates (10,000/well, 100 μL) and incubated overnight under growth conditions. On the second day, ‘growth’ media was removed and replaced by ‘assay’ media (100 μL). On the third day, cells were treated with a serial dilution of drugs or DMSO for 48 h. mRNA expression was determined through Taqman Fast Cells-to-CT Kit (#4399003) per the manufacturer's instructions. In brief, cells were washed with chilled PBS, then mixed with lysis solution containing DNase I and incubated at RT for 5 min. Stop solution was then added to quench the lysis reagents. cDNA was then synthesized through a BioRad MyCycler following addition of reverse transcriptase. Finally, the cDNA was amplified through an ABI 7500 system following addition of Taqman Fast Universal PCR Master Mix and Taqman Gene Expression Primer. Relative gene expression levels were computed by the ΔΔCt method. Values represent mRNA expression relative to DMSO control (set at 1.0). Data were analyzed using GraphPad Prism, and IC50 values are the mean±SEM for at least two separate experiments performed in triplicate. Primers used are as follows: mouse ActB (Mm00607939_s1); mouse GLI1 (Mm00494645_ml); mouse Gli2 (Mm01293117_ml); mouse Ptch1 (Mm00436026_ml); mouse Hhip (Mm00469580_ml).
C3H10T1/2 MEFs were seeded in 24-well plates (50,000/well, 500 μL). Following 24 h incubation, the ‘growth’ media was removed and replaced with ‘assay’ media (500 μL). On the third day, cells were treated with either DMSO, OHCs, or OHCs+drugs. Following a 24 h incubation, gene expression analysis was carried out following identical protocols as described above.

PANC-1 (pancreatic) = assay: MTS anti-proliferative assay in PANC-1 cells; assay type: cell-based; details: Homo sapiens, PANC-1; Table 8, 48 h, mean ± SEM
Procedure: (§2) Cell viability was assessed by MTS proliferation assay kit (Promega) per manufacturer's protocol. Briefly, 2×10^4 cells were plated in a 96-well plate in 100 μL growth medium to make the cell population at ˜80% confluence. After 24 h, 1 μL drug solution was added to each well. DMSO was used as vehicle compound. After 48 h incubation (37° C., 5% CO2), 20 μL of freshly prepared 3-(4,5-dimethylthiazol-2-yl)-5-(3-carboxymethoxyphenyl)-2-(4-sulfophenyl)-2H-tetrazolium (MTS)/phenazine methosulfate (PMS) solution was added to each well, and the plate was returned to the incubator for 1 h. Absorbance at 490 nm was recorded, and the result was analyzed by GraphPad Prism 5. GI50 values represent mean±SEM for at least two separate experiments performed in triplicate.

GLI1 mRNA expression [2] = assay: RT-qPCR GLI1 mRNA expression in ASZ001 BCC cells; assay type: cell-based, mouse; details: Mus musculus
DAOY (MB) = assay: MTS anti-proliferative assay in DAOY cells; assay type: cell-based; details: Homo sapiens, Daoy; Table 8, 48 h, mean ± SEM
Procedure: as §2

GLI1 protein levels = assay: Western blot GLI1 protein expression in ASZ001 cells; assay type: cell-based, murine; details: 25 μM
Procedure: (§3) ASZ001 cells were plated as described above and treated with drugs or vehicle control. Following incubation, cells were washed with chilled PBS and lysed with RIPA buffer containing […] PMSF protease inhibitor (Thermo Scientific #26978). Supernatant was collected following 15 min centrifugation at 12,000 rpm and 4° C. Protein concentrations from cell extracts were determined through the BCA kit (Pierce #23228) per the manufacturer's instructions. Proteins from either cell lysate or cell-free biochemical assay were then loaded on 12% SDS-PAGE. Following electrophoresis, proteins were transferred onto nitrocellulose membrane at 100 V for 120 min at 4° C. On a clean tray with constant gentle shaking, the membrane was sequentially submerged in 5% BSA for 1 h, and incubated with the primary antibody indicated overnight at 4° C. After washes with TBST, the appropriate secondary antibody was added to the tray for a 2 h incubation at RT. Chemiluminescent detection on film was visualized using ECL reagents (BioRad #1705060) and subsequently quantitated using Image J (http://imagej.nih.gov). Primary antibodies were used at 1:2000 dilution and are as follows: GLI1 (#MA5-32553); Gli2 (#PA5-79314); β-Actin (#PA1-16889). Secondary antibody (Goat anti-Rabbit, #32460) was used at a 1:5000 dilution. All antibodies were purchased from Invitrogen.

GLI1-ZFD = molecular target: T1, GLI1-ZFD (Homo sapiens, UniProt P08151); assay: Microscale thermophoresis (MST) binding to GLI1-ZFD
T1 construct: GLI1-ZFD Expression and Purification; made in house
T1 sequence (P08151 234-388 limits assumed): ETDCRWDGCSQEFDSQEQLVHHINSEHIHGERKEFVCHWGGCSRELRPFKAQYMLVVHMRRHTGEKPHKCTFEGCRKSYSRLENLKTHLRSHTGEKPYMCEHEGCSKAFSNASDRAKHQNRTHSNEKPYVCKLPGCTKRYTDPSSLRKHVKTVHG
Procedure: The protein expression and purification experiments followed the previous reported procedures [C. A. Maschinot, et al., Synthesis and evaluation of third generation vitamin D3 analogues as inhibitors of hedgehog signaling. Euro. J. Med. Chem. 162 (2019) 495-506].
GLI1 protein labeling was performed through the Monolith Protein Labeling Kit RED-NHS 2nd Generation (Nanotemper #MO-LO11) per the manufacturer's instructions. Briefly, GLI1 (100 μg, 1 mg/mL) underwent buffer exchange to remove incompatible ingredients like Tris or DTT. Proteins in the Labeling Buffer were incubated with freshly prepared dye (˜3-fold excess of dye) for 30 min at RT in the dark. Unreacted ‘free’ dye was removed by a gel-filtration column. Protein concentration and degree-of-labeling were calculated by measuring absorption at 280 nm and 650 nm. For each assay, 200 nM GLI1 in MST Buffer was mixed with compound dilution in DMSO (DMSO<5%, v/v). The mixture was then loaded to a capillary and the thermophoresis was subsequently determined through Monolith NT.115 station. Results were analyzed by MO.Affinity Analysis software and visualized by Graphpad Prism. MST Buffer: 50 mM HEPES, pH 8.3, 100 mM NaCl.

ASZ001 cells = assay: MTS anti-proliferative assay in ASZ001 cells; assay type: cell-based, murine; details: Mus musculus, ASZ001; Table 5, 48 h, Ave ± SEM
Ptch1 mRNA expression = assay: RT-qPCR Ptch1 mRNA expression in ASZ001 cells; assay type: cell-based, mouse; details: FIG. 4A
Procedure: as §1

GLI1 mRNA expression [3] = assay: RT-qPCR GLI1 mRNA expression in Sufu-KO MEFs; assay type: cell-based, mouse; details: Mus musculus
GLI2 protein expression = assay: Western blot GLI2 protein expression in ASZ001 cells; assay type: cell-based, murine; details: 25 μM
Procedure: as §3

Gli2 mRNA expression = assay: RT-qPCR Gli2 mRNA expression in ASZ001 cells; assay type: cell-based, mouse; details: 10 μM
Procedure: as §1

CCN(CC)c1ccc(C(Nc2ccccn2)c2ccc3ccc(C)nc3c2O)cc1 (stereo not shown) [Compound 1]
% Gli1 Expression (GLI1 mRNA expression [1]; C3H10T1/2 MEFs, 10 μM, relative to Hh-agonist OHCs (set as 100%), mean ± SEM): 5.9 ± 0.5%
IC50 (GLI1 mRNA expression [1]; C3H 10T1/2, Table 2, mean ± SEM, read-out: GLI1 mRNA expression, IC50 C3H10T1/2): 260 ± 160 nM
IC50 (GLI1 mRNA expression [1]; C3H 10T1/2, Table 4, racemates and enantiomers, mean ± SEM, read-out: RT-qPCR, IC50 C3H10T1/2): 260 ± 160 nM
GI50 (PANC-1 (pancreatic)): 21.1 ± 4.2 µM
IC50 (GLI1 mRNA expression [2]; ASZ001, Table 2, mean ± SEM, read-out: GLI1 mRNA expression, IC50 ASZ001): 1300 ± 700 nM
IC50 (GLI1 mRNA expression [2]; ASZ001, Table 4, racemates and enantiomers, mean ± SEM, read-out: RT-qPCR, IC50 ASZ001): 1300 ± 700 nM
IC50 (GLI1 mRNA expression [2]; ASZ001, Table 5, GLI1 mRNA, Ave ± SEM, read-out: RT-qPCR, IC50 ASZ001): 1300 ± 700 nM
GI50 (DAOY (MB)): 14.1 ± 2 µM
GLI1 protein levels (in words) (GLI1 protein levels): significantly down-regulated
Kd (GLI1-ZFD; Table 2, mean ± SEM): 13400 ± 4000 nM
Kd (GLI1-ZFD; Table 4, mean ± SEM): 13400 ± 4000 nM
Kd (GLI1-ZFD; Table 5, Ave ± SEM): 13800 ± 3400 nM
GI50 (ASZ001 cells): 13800 ± 3400 nM
Ptch1 mRNA expression (in words) (Ptch1 mRNA expression): significantly down-regulated
IC50 (GLI1 mRNA expression [3]; Table 2, mean ± SEM, read-out: GLI1 mRNA expression, IC50 Sufu-KO): 1500 ± 500 nM
IC50 (GLI1 mRNA expression [3]; Table 4, racemates and enantiomers, mean ± SEM, read-out: RT-qPCR, IC50 Sufu-KO): 1500 ± 500 nM
IC50 (GLI1 mRNA expression [3]; Table 5, GLI1 mRNA, Ave ± SEM, read-out: RT-qPCR, IC50 Sufu-KO): 1500 ± 500 nM
GLI2 protein expression (in words) (GLI2 protein expression): significantly suppressed
inhibition of Gli2 mRNA expression, rank (in words) (Gli2 mRNA expression): most active
